For one data set, the system named is NMDA receptors. The settings on record: in vivo; cited from earlier work.
In a further data set the test system is neuronal culture system. The settings on record: compound alone; cited from earlier work.
The test system of data set [1] is rat fetal hippocampus neurons. Kind of data set: Kainic acid neurotoxicity inhibition (LDH release) in primary culture of rat fetal hippocampus neurons. The class given is cell-based. The settings on record: Neuron, 300 μM kainic acid, 24 hours, read-out: Anti-kainic acid neurotoxicity (IC50). From the text:
2) Measurement of kainic acid neurotoxicity inhibition activity:
The action of the compound of the present invention to inhibit kainic acid neurotoxicity was examined using a primary culture system of rat fetal hippocampus neurons.
Hippocampus was excised from the brain of a rat of 18 to 20 days of age and treated with enzymes papain and DNase I to disperse the cells. The cells were suspended in MEM containing 10% serum and inoculated in 4×10^5 cells/cm^2 portions into wells of a 48 well plate which has been treated in advance with poly-I-lysine, and the medium was exchanged with serum-free medium 24 hours thereafter. The medium exchange was carried out twice a week. The cells cultured for 6 days or more were used in the following test.
(2) Kainic acid neurotoxicity inhibition
The neurotoxicity was expressed as the activity of lactate dehydrogenase released in the culture medium caused by cell death. Cells exposed for 24 hours to serum-free medium containing 300 μM of kainic acid were used as the control, and the action of each of the same test compounds used in the above item 1) to inhibit neuronal death caused by kainic acid was evaluated by allowing each compound to act upon the neurons for 24 hours simultaneously with 300 μM of kainic acid.
A general note: Release of lactate dehydrogenase indicates damage to the cell membrane.

Data set [2] addresses AMPA receptor. Kind of data set: [3H]-AMPA binding inhibition activity. The settings on record: about 45 nM [3H]-AMPA, rat cerebral membrane, 45 minutes on ice water. On the procedure: 1) Measurement of [^3 H]-AMPA binding inhibition activity:
A 0.5 ml portion in total volume of a reaction solution containing about 45 nM of [^3 H]-AMPA [2-amino-3-(3-hydroxy-5-methyl-4-isoxazole)propionicacid], about […] of rat cerebral membrane samples and each of the test compounds was allowed to undergo 45 minutes of the reaction on ice water. The amount of [^3 H]-AMPA bonded to the AMPA receptor was measured by a filtration method. The portion substituted by 10 μM of quisqualic acid among the total amount of binding was defined as the amount of specific binding. Evaluation of the test compounds was carried out by calculating the ratio of binding inhibition exerted on the specific binding.
As the test compounds, the compound of Example 3, which will be described later, was used as the compound of the present invention, and a compound described as Example 1 in the aforementioned reference 1, represented by the following formula (to be referred to as comparative compound 1 hereinafter), was used as a comparative compound. […]

Data set [3] deals with AMPA receptor. The following applies: Data reported at the American Society of Neuroscience (1996); read-out: AMPA binding inhibition activity (IC50); cited from earlier work.
Another data set has as its system DBA/2 mice. Kind of data set: Audiogenic seizure inhibition action in DBA/2 mice. The class given is in vivo. The following applies: Mus musculus, ip, 0.25 h; DBA/2 male mice, intraperitoneal injection 15 minutes before sound stimulus (12 kHz, 120 dB); read-out: minimum effective dose (MED), inhibition of audiogenic seizure. The method, then: 3) Measurement of audiogenic seizure inhibition action in DBA/2 mice
In a sound proof box, a total of 10 male mice of 21 to 28 days of age were exposed to auditory and stimulation by the sound of 12 kHz and 120 dB was applied for 1 minute or until the mice fell into a fit of convulsions. A compound to be tested (the compound of Example 3 which will be described later) was suspended in 0.5% methyl cellulose solution or dissolved in physiological saline and administered by intraperitoneal injection 15 minutes before the sound stimulus. The drug efficacy was evaluated by the presence or absence of spasm, and the minimum effective dose (MED) was calculated.

For another data set, the system named is glycine receptor. The settings on record: in vivo; cited from earlier work.
In data set [4] the test system is AMPA receptor. The settings on record: in vivo; cited from earlier work.

Read-outs that look alike come from different tables or passages of the source.

As for `NC(CCCP(=O)(O)O)C(=O)O` (stereo not drawn) [2-amino-5-phosphonovalerianic acid], in the data set on NMDA receptors, the “effect in nervous disorders induced by NMDA and in animal models of epilepsy and cerebral ischemia (in words)” value is “effective”.

For the compound `NC(CCCCCP(=O)(O)O)C(=O)O` (stereo not drawn) [2-amino-7-phosphonoheptanoic acid], the “effect in nervous disorders induced by NMDA and in animal models of epilepsy and cerebral ischemia (in words)” value with NMDA receptors is recorded as “effective”.

Turning to `Cc1onc(O)c1CC(N)C(=O)O` (stereo not drawn) [AMPA, 2-amino-3-(3-hydroxy-5-methyl-4-isoxazolyl)propionic acid], the “action in neurotoxicity test (in words)” value in the data set on neuronal culture system is “weak action”.

In general, IC50 refers to the point on the concentration scale where inhibition reaches its midpoint. For the compound `O=C(O)Cn1c(=O)c(=O)[nH]c2cc([N+](=O)[O-])c(-n3ccnc3)cc21` [Comparative compound 1], the figures for the half-inhibitory concentration (IC50) (in data set [1]; at AMPA receptor [2]) were 800 nM and 140 nM, respectively.

Regarding `O=c1[nH]c2cc(C(F)(F)F)c(N3CCOCC3)cc2n(CP(=O)(O)O)c1=O` [Comparative compound 2], at AMPA receptor [3], the IC50 was 150 nM.

On to `O=c1[nH]c2cc([N+](=O)[O-])c(-n3ccnc3)cc2n(CCCCOS(=O)(=O)O)c1=O` [Example 3, 4-[2,3-dioxo-7-(1H-imidazol-1-yl)-6-nitro-1,2,3,4-tetrahydroquinoxalin-1-yl]butanesulfate], for which the IC50 in data set [1] was found to be 160 nM; on AMPA receptor [2], 39 nM. In addition, in the data set with DBA/2 mice, the minimal effective dose is 3 mg/kg.

With `NC1CCN(O)C1=O` (stereo not drawn) [HA-966], the “effect in experimental animal model suffering from cerebral ischemia (in words)” value in the data set on glycine receptor was “useful”.

Turning to `NS(=O)(=O)c1cccc2c1c([N+](=O)[O-])cc1[nH]c(=O)c(=O)[nH]c12` [NBQX], the “effect in experimental animal model suffering from cerebral ischemia (in words)” value in the data set with AMPA receptor [4] is listed as “useful”.

For the compound `C=C(C)[C@H]1CN[C@H](C(=O)O)[C@H]1CC(=O)O` [kainic acid], the “action in neurotoxicity test (in words)” value with neuronal culture system is recorded as “induces by itself significant neuronal death”.
